Data set [1] can be described thus: Compatibility Test B: mixtures of single borate esters with Fungicide I. The data set is classed as physicochemical. The following applies: for appearance during mixing / separation or precipitation after mixing: borate ester mixed with Fungicide I (TBGB, HGB 10%); for overall stability of mixture with Fungicide I: conclusion from the observations; for collapse of closed container (moisture drawn from air): mixture with Fungicide I in closed container, TBGB a week, THGB 18 days. An excerpt: A mixture of Fungicide I and a 10% tributylene glycol biborate (TBGB) was made by pouring the TBGB into the Fungicide I. The following observations were made while making and after making the mixture.
The TBGB reacted with moisture in the air while pouring and formed a thin white film over the pour stream. […] This behavior was duplicated by opening the container and allowing it to come back to its normal shape and closing the container again. It is noted that TBGB in a fungicide mixture when open to the air will draw moisture from the air and hydrolyze to a form insolubles and result in an increase in the separated phase. The hazing during mixing and phase separation seen during the first test was identical to that observed during this mixing.
The TBGB test was repeated using a mixture of 10% hexylene glycol biborate (HGB). The mixture was made by pouring the HGB into the Fungicide I composition. The following observations were made while making and after making the mixture:
The container was closed. The crystalline material is soluble in water and isopropyl alcohol. A 10% HGB/mineral spirits solution was made to test for moisture adsorption from the air. […] The crystalline material is likely the hydroxy hexylene glycol borate compound formed by hydrolysis of the anhydride bond. The crystal formation in the HGB testing is similar to that observed in the first test in the test mixture storage drum.
The basic observations are that both the TBGB and HGB react with various components of the Fungicide I mixture and react with moisture in the air.
A mixture of tri hexylene glycol biborate (THGB) and Fungicide I was made. It was observed that the solution remains clear with no separation. Next, the mixture was left open to atmosphere for 90 days at 40% to 50% relative humidity conditions. […] A 10% evaporative loss of mineral spirits approximately every 14 days was replaced with new mineral spirits without any negative effects. […] The mixture was placed in a 0° F. freezer overnight. […] The mixture was placed in a 42° F. refrigerator for 63 hours.

For data set [2] the following is noted: cited from earlier work.

Consider four compounds from US7816343B2, “Wood preservative composition” (HWD Acquisition, Inc., priority 2007, dated 2010).

Each structure is given as a SMILES string.

Take `CC1CC(C)(C)OB(OB2OC(C)CC(C)(C)O2)O1` (stereo not drawn) [HGB, hexylene glycol biborate]: the “appearance of solution, container closed” value in data set [1] (10% HGB/mineral spirits solution, container closed) is “remained clear without separation or solid precipitation”. Also, the “appearance of solution, container open to air” value in data set [1] (10% HGB/mineral spirits solution, opened to air, over night) is recorded as “white crystal formation”. Further, in data set [1], the appearance during mixing result is on record as “remained clear during mixing”, the “separation or precipitation after mixing” value was “opaque white crystalline material immediately formed on the container surfaces” and the “overall stability of mixture with Fungicide I” value (from here on “overall stability of mixture”) is “too reactive to form stable mixtures”.
For the compound `CC1CCOB(OCCC(C)OB2OCCC(C)O2)O1` (stereo not drawn) [TBGB, tributylene glycol biborate], in data set [1], the appearance during mixing result was “immediately became hazy”, the “separation or precipitation after mixing” value was “brownish/red colored layer immediately began to form at the bottom of the container”, the “overall stability of mixture” value was “too reactive to form stable mixtures” and the “collapse of closed container (moisture drawn from air)” value is reported as “collapse slightly after a week”.
For `CC1CC(C)(C)OB(OC(C)CC(C)(C)OB2OC(C)CC(C)(C)O2)O1` (stereo not drawn) [THGB, tri hexylene glycol biborate], the redissolution on heating result in data set [1] (after freezer, heated to approximately 20 F with stirring) is listed as “dissolved all of the white solids”. In data set [1], the appearance during mixing entry was “remains clear”, the “separation or precipitation after mixing” value is given as “no separation”, the “overall stability of mixture” value is reported as “produces stable mixtures” and the “collapse of closed container (moisture drawn from air)” value is given as “without any collapse”. In addition, the “appearance after open storage” value in data set [1] (mixture with Fungicide I left open to atmosphere 90 days, 40% to 50% relative humidity) was “remained clear with no separation and no precipitation of solids”. Besides, in data set [1] (mixture with Fungicide I, 0° F. freezer overnight), the “appearance after freezer storage” value is reported as “white solids were observed at the bottom of the container”. Also, the “appearance after refrigerator storage” value in data set [1] (mixture with Fungicide I, 42° F. refrigerator, 63 hours) was “remained clear without separation or precipitation”.
As to `OB(O)O` [boric acid], the “maximum boron concentration of saturated aqueous solution” value in data set [2] is “no more than one”.
